Results: US11919856B2, “Compounds” (UCL BUSINESS LTD, priority 2018, dated 2024)

What was measured:
[1] = target: T1, Z-alpha-1-antitrypsin (Z-A1AT) (Homo sapiens, UniProt P01009, E366K/V237A); assay: Inhibition of Z-alpha-1-antitrypsin polymerisation TR-FRET assay; type: biochemical; settings: mean, 5 nM Z-A1AT, 72 hours at 37° C.
T1 construct: Z-alpha-1-antitrypsin was purified from human plasma; from tissue; host or cells: human plasma of ZZ homozygous donors
Description: The potencies of the compounds of the invention for inhibition of Z-alpha-1-antitrypsin (Z-A1AT) polymerisation can be determined by a time-resolved fluorescence energy transfer (TR-FRET) assay performed on purified Z-A1AT as described herein. […] Mean activity data for the assay described below for compounds 1-4:
Inhibition of Z-Alpha-1-Antitrypsin Polymerisation Assay Protocol
Z-alpha-1-antitrypsin was purified from human plasma of donors homozygous for the Z-A1AT form. The purification was performed according to a published protocol (Lomas et al. Biochemistry 1993; 32:500-508) involving ammonium sulphate precipitation, thiol exchange fractionation, and anion exchange fractionation.
Purified Z-A1AT was diluted to 5 nM in PBS buffer with 0.01% Tween-20 and mixed with different concentrations of inhibitor compounds dissolved in DMSO, in 384-well assay plates. Following incubation for 72 hours at 37° C., the amount of Z-A1AT polymer was detected using a time-resolved fluorescence resonance energy transfer (TR-FRET) assay format, by adding an antibody detection mix to the assay plates. The detection mix contained an A1AT-polymer specific monoclonal antibody (Miranda et al. Hepatology 2010; 52: 1078-1088), Terbium-labelled anti-mouse antibody, a polyclonal rabbit anti-A1AT antibody, and an Alexa488-labelled anti-rabbit antibody. TR-FRET data were normalised to controls (DMSO vehicle control giving 0% inhibition, saturating concentrations of an active compound giving 100% inhibition), and IC50 values were derived by fitting 4-parameter logistic curves to the normalised data.
An antibody-based time-resolved fluorescence resonance energy transfer (TR-FRET) assay was used to monitor the polymerisation of 5 nM Z α1-antitrypsin following incubation with varying concentrations of compounds at 37° C. for 72 hours. This assay used the 2C1 monoclonal antibody that is specific to pathological polymers of α1-antitrypsin (Miranda et al. Hepatology 2010; 52: 1078-1088), a polyclonal antibody that binds to all forms of α1-antitrypsin, an anti-mouse IgG fluorescence donor (Eu-W1024) and an anti-rabbit IgG acceptor (APC).

[2] = Total and free drug in blood and liver of Z α1-antitrypsin transgenic mice; type: in vivo, mouse; settings: for systemic free drug levels relative to in vitro secretion potency: duration of the dosing period
Description: (§1) To explore the PK-PD relationship of Compound 1, Z α1-antitrypsin transgenic animals were dosed with 100, 30 or 10 mg/kg Compound 1 three times a day and on day 6 blood and liver were harvested at 3 hr (˜Cmax) and 8 hr (Cmin) after the dose for the measurement of total and free drug in both tissues. Blood was also harvested for the measurement of monomeric Z α1-antitrypsin in plasma. Total concentrations of Compound 1 were determined by specific LC-MS/MS assay and the free unbound drug in both tissues was determined using equilibrium dialysis and used to derive unbound concentrations.

[3] = Blood exposure after single PO administration in male CD-1 mouse; type: in vivo
Description: Compound 1 had in vitro ADME properties suitable for in vivo evaluation of the pre-clinical and clinical pharmacology of the molecule.

Z α1-antitrypsin = Z α1-antitrypsin (Homo sapiens, UniProt P01009, E366K/V237A); assay: Circulating monomeric Z α1-antitrypsin in plasma of Z α1-antitrypsin transgenic mice; type: in vivo; design: a random insertion of the human Z α1-antitrypsin gene; from tissue; host or cells: liver and plasma of Z α1-antitrypsin transgenic mice (human Z transgene)
Z α1-antitrypsin, sequence (P01009 25-418 V237A/E366K): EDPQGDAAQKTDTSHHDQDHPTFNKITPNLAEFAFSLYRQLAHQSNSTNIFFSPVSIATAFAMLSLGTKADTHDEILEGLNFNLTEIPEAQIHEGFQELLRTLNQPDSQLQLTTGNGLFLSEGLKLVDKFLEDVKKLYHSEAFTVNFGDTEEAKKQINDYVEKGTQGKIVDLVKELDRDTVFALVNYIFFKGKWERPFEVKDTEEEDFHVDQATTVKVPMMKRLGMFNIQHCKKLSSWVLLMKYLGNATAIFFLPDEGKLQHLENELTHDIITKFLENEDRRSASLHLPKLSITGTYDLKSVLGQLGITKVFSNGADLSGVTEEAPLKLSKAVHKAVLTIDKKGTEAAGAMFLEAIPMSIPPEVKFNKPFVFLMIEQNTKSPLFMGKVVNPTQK
Description: In order to investigate the therapeutic potential of Compound 1 in Z α1-antitrypsin deficiency, the compound was tested in a transgenic mouse model engineered with a random insertion of the human Z α1-antitrypsin gene (Teckman et al. Am J Physiol Gastrointest Liver Physiol. 2004; 286:G851-G62). To determine a suitable dose regimen for Compound 1 in these studies the total and unbound exposure in transgenic mice was estimated in an in silico model.
as §1
Recent work has shown that a significant fraction of the total Z α1-antitrypsin in the circulation is in the polymeric conformation (Tan et al. Eur Respir J. 2014; 43(5):1501-4). […] Monomeric Z α1-antitrypsin was measured in plasma samples following 6 days of dosing and levels were normalised to each animals' pre-dose control levels to account for the natural variation of Z α1-antitrypsin between animals. […]
Since Compound 1 blocks polymer formation in cells the effect of dosing Compound 1 on liver polymer levels was explored. […] On days 15 and 21 of dosing, changes of monomeric Z α1-antitrypsin plasma samples were determined as above, and increases of 7- to 8-fold over the pre-dosing baseline levels were observed, similar to the effect in animals dosed for 3 or 6 days, consistent with sustained target engagement through the dosing period. […] There was no difference observed in total liver polymer load via manual or quantitative scoring.

T1 sequence (P01009 25-418 V237A/E366K): as above

In the case of `CCC[C@@H](NC(=O)c1cccc2c1CC(=O)N2)[C@@H](O)c1cccc(F)c1C` [Compound 1, N-[(1S,2R)-1-(3-fluoro-2-methylphenyl)-1-hydroxypentan-2-yl]-2-oxo-2,3-dihydro-1H-indole-4-carboxamide], the IC50 [1] is reported as 5.01 nM, the “systemic free drug levels relative to in vitro secretion potency” value ([2]; 10 mg/kg) is reported as “EC10-EC20” and the “free drug levels in blood” value ([2]; 30 mg/kg and 10 mg/kg three times a day, large part of the dosing period) is reported as “significantly below the cellular EC50 concentrations”. The “systemic free drug levels relative to in vitro secretion potency” value ([2]; 30 mg/kg) was “EC20-EC30”, the concentration at 8 h ([2]; Z α1-antitrypsin transgenic, mouse, blood, oral, 100 mg/kg three times a day, day 6, majority of the dosing period, read-out: Cmin levels of the free drug concentration in blood) was at least 300 nM and the “free and total drug concentrations in the liver” value ([2]; transgenic mice, day 6) was “equivalent to those in blood”. For the same molecule, the DNAUCinf ([3]; single PO 10 mg/kg) was 202±101, the “mean dose-normalised Cmax” value ([3]; single PO 10 mg/kg) was 58±112 and the DNAUCinf ([3]; single PO 30 mg/kg) was 294±47. For the same molecule, the “mean dose-normalised Cmax” value ([3]; single PO 30 mg/kg) was 113±27, the DNAUCinf ([3]; single PO 100 mg/kg) was 403±246 and the “mean dose-normalised Cmax” value ([3]; single PO 100 mg/kg) was 113±27. For the same molecule, the “increase in circulating Z α1-antitrypsin” value (Z α1-antitrypsin; 30 mg/kg and 10 mg/kg three times a day, 6 days) was “significant, dose-dependent increases”, the “increase of plasma concentrations of the serpin” value (Z α1-antitrypsin; transgenic mouse model) was “up to 8 fold” and the “increase in circulating levels of Z α1-antitrypsin” value (Z α1-antitrypsin; within 3 days of dosing, maintained throughout the experiment) was 7 fold.
